Article PMC9854712 (Antioxidants, 2023)

Key:
HCT116 cells = experiment: MTT cell viability assay, HCT116; format: cell-based; settings: Homo sapiens, HCT-116, 48 h
Description: (§1) The cell lines were obtained from the American Type Culture Collection (ATCC). Five tumor cell lines (MDA-MB-231, MCF-7, HCT116, HTB-54, and DU-145) and two non-tumorigenic cells (184B5 and BEAS-2B) were grown in RPMI 1640 medium (Gibco), and the HT-29 tumor cell line was grown in McCoy’s medium. Both mediums were supplemented with 10% fetal bovine serum (FBS; Gibco) and 1% antibiotics (10.00 units/mL penicillin and 10.00 μg/mL streptomycin; Gibco). Cells were preserved in tissue culture flasks at 37 °C and 5% CO2. The culture medium was replaced every three days.
(§2) The effect of each compound on cell viability was tested using the MTT assay. […] Selected compounds were then tested at seven different concentrations (0.5–100 μM) in MCF-7, HCT116, HT-29, HTB-54, 184B5 and BEAS-2B cells. Cells were seeded at 10^4 per well onto flat-bottomed 96-well culture plates. They were treated with either DMSO or increasing concentration of the corresponding compound for 48 h. Then, they were incubated with 20 μL of 3-(4,5-dimethylthiazol-2-yl)-2,5-diphenyltetrazolium bromide (MTT) (2 mg /mL stock; Aldrich) for 2,5 h and analyzed for their ability to generate a purple formazan dye. These formazan crystals were dissolved in 50 μL of DMSO. The absorbance was measured at a wavelength of 550 nm and the ratio of viable cells was calculated.
(§3) Results are expressed as cell viability % at 10 μM. Selectivity index were calculated as the ratio of the IC50 values determined for the non-malignant and the tumor cells in breast (IC50 (184B5)/IC50 (MCF-7)) and lung (IC50 (BEAS-2B)/IC50 (HTB-54)) cell lines. Data were obtained from at least three independent experiments performed in triplicates.

[1] = tested on: HTB-54, DU-145, HT-29 and MDA-MB-231 cancer cell lines; experiment: cells; format: cell-based; settings: against the panel of the four cancer cell lines
Description: as §1, §2
As a first approach, all the compounds were tested in vitro against lung (HTB-54), prostatic (DU-145), colon (HT-29), and triple-negative breast (MDA-MB-231) cancer cell lines at two concentrations (50 and 10 µM) for 48 h. Then, the MTT colorimetric assay was used to evaluate cell proliferation after the treatment. The data are expressed as the percentage of cell growth ± SD in at least three independent experiments performed in quadruplicates (Table S1).

DU-145 cells = experiment: MTT cell viability assay, DU-145; format: cell-based; settings: Homo sapiens, DU-145, 48 h, read-out: Cell growth % at 10 µM, DU-145
Description: as §1, §2, §3

HT-29 cells = experiment: MTT cell viability assay, HT-29; format: cell-based; settings: Homo sapiens; for viability at 10 µM: HT-29, 10 µM, 48 h, read-out: Cell growth % at 10 µM, HT-29; for IC50: HT-29, 48 h
Description: as §1, §2, §3

BEAS-2B cells = experiment: MTT cell viability assay, BEAS-2B (non-tumorigenic); format: cell-based; settings: Homo sapiens, 48 h, nonmalignant bronchial epithelium
Description: as §1, §2, §3

[2] = tested on: NCI-H322M (non-small cell lung); experiment: NCI-60 Five-Dose assay, NCI-H322M; format: cell-based; settings: Homo sapiens, 48 h
Description: (§4) Compounds 14a and 17a were submitted to the Developmental Therapeutics Program (DTP) of National Cancer Institute (NCI). Cytotoxicity activity was evaluated by performing One-Dose screening (10^−5 M) against a panel of 60 human tumor cell lines. […] Cells grew in the RPMI 1640 medium containing 5% fetal bovine serum and 2 mM L-glutamine and were inoculated into 96-well microtiter plates in 100 μL at plating densities ranging from 5.000 to 40.000 cells/well. The microtiter plates inoculated with cells were incubated at 37 °C, in 5% humidified CO2 for 24 h prior to addition of experimental drugs. Then, experimental drugs were added, and the microtiter plates were incubated for 48 h. The protocol is available on https://dtp.cancer.gov/discovery_development/nci-60/methodology.htm accessed on 31 December 2022.

OVCAR-8 (ovarian) = experiment: NCI-60 Five-Dose assay, OVCAR-8; format: cell-based; settings: Homo sapiens, 48 h
Description: as §4

[3] = tested on: HTB-54, HT-29, HCT116 and MCF-7 cancer cell lines; experiment: MTT IC50, all tested cancer cell lines; format: cell-based; settings: 48 h
Description: as §1
as §2, with “calculated. […]” for “calculated.”

SNB-19 (CNS) = experiment: NCI-60 Five-Dose assay, SNB-19; format: cell-based; settings: Homo sapiens, 48 h
Description: as §4, with “Cytotoxicity activity was evaluated by performing One-Dose screening (10^−5 M) against a panel of 60 human tumor cell lines.” left out

184B5 cells = experiment: MTT cell viability assay, 184B5 (non-tumorigenic); format: cell-based; settings: Homo sapiens, 48 h, nonmalignant mammary gland
Description: as §1, §2, §3

OVCAR-3 (ovarian) = experiment: NCI-60 Five-Dose assay, OVCAR-3; format: cell-based; settings: Homo sapiens, 48 h
Description: as §4

[4] = tested on: melanoma and ovarian cancer cell lines; experiment: NCI-60 Five-Dose assay, melanoma and ovarian lines; format: cell-based, human
Description: as §4, with “Cytotoxicity activity was evaluated by performing One-Dose screening (10^−5 M) against a panel of 60 human tumor cell lines.” left out

SK-MEL-5 (melanoma) = experiment: NCI-60 Five-Dose assay, SK-MEL-5; format: cell-based; settings: Homo sapiens, 48 h
Description: as §4, with “Cytotoxicity activity was evaluated by performing One-Dose screening (10^−5 M) against a panel of 60 human tumor cell lines.” left out

MDA-MB-231 cells = experiment: MTT cell viability assay, MDA-MB-231; format: cell-based; settings: Homo sapiens, MDA-MB-231, 48 h, read-out: Cell growth % at 10 µM, MDA-MB-231
Description: as §1, §2, §3

MCF-7 cells = experiment: MTT cell viability assay, MCF-7; format: cell-based; settings: for IC50: Homo sapiens, MCF7, MTT, 48 h; for SI (breast): IC50 (184B5)/IC50 (MCF-7)
Description: as §1, §2, §3

[5] = tested on: panel of 60 human tumor cell lines; experiment: NCI-60 analysis (One-Dose and Five-Dose), whole panel; format: cell-based; settings: 48 h; for GI50: Homo sapiens, Five-Dose assay, 60 cell lines; for mean growth percent: One Dose (10 µM), 60 cancer cell lines
Description: as §4

| Compound | IC50 (HCT116 cells) [nM] | viability at 10 µM [1] [%] | viability at 10 µM (DU-145 cells) [%] | viability at 10 µM (HT-29 cells) [%] | IC50 (HT-29 cells) [nM] | IC50 (BEAS-2B cells) [nM] | GI50 [2] [nM] | GI50 (OVCAR-8 (ovarian)) [nM] | IC50 [3] [nM] | GI50 (SNB-19 (CNS)) [nM] | IC50 (184B5 cells) [nM] | GI50 (OVCAR-3 (ovarian)) [nM] | LD50 [4] | GI50 (SK-MEL-5 (melanoma)) [nM] | viability at 10 µM (MDA-MB-231 cells) [%] | IC50 (MCF-7 cells) [nM] | SI (breast) (MCF-7 cells) | GI50 [5] [nM] | mean growth percent [5] |
| --- | --- | --- | --- | --- | --- | --- | --- | --- | --- | --- | --- | --- | --- | --- | --- | --- | --- | --- | --- |
| C=CC[Se]C(=O)Cc1c(C)n(C(=O)c2ccc(Cl)cc2)c2ccc(OC)cc12 [Compound 17a, Se-allyl 2-[1-(4-chlorobenzoyl)-5-methoxy-2-methyl-1H-indol-3-yl]ethaneselenoate] | 7000 ± 900 | < 55 | 16.3 ± 8.4 | 38.7 ± 6 | 5900 ± 800 | 6300 ± 2300 | 420 | 1700 | < 10000 | 660 | 13300 ± 3900 | 1800 | below 9.2 µM | 1700 | 26.5 ± 5.6 | 9800 ± 300 | 1.4 | 1740 | −26.70 |
| C=CC[Se]C(=O)c1ccccc1OC(C)=O [Compound 14a, 2-(allylselanylcarbonyl)phenylacetate] | 5900 ± 800 | < 55 | 16.9 ± 8.6 | 53.9 ± 5.3 | 6400 ± 1000 | 7100 ± 2400 | 340 | 1500 | < 10000 | 490 | 10200 ± 100 | 1900 | below 9.2 µM | 1900 | 38.8 ± 3.6 | 9900 ± 900 | 1.0 | 1790 | −5.89 |
